Reference: article PMC5218480 (PLoS ONE, 2017)

System: MV-4-11 cells
Test: Gene expression microarray analysis (Affymetrix PrimeView) and GSEA
Assay type: cell-based, human
Set-up: RFU PODN (11730768_x_at) / Fold change /veh PODN (11730768_x_at) / RFU LINC00158 (11744669_a_at) / Fold change /veh LINC00158 (11744669_a_at) / RFU DUSP10 (11751237_a_at) / Fold change /veh DUSP10 (11751237_a_at) / RFU ID3 (11757404_x_at) / Fold change /veh ID3 (11757404_x_at) / RFU PLEKHG5 (11737974_s_at) / Fold change /veh PLEKHG5 (11737974_s_at) / RFU LRRC4B (11730491_at) / Fold change /veh LRRC4B (11730491_at) / RFU GIMAP4 (11747438_a_at) / Fold change /veh GIMAP4 (11747438_a_at) / RFU KRT8 (11758183_x_at) / Fold change /veh KRT8 (11758183_x_at) / RFU CNN1 (11734310_a_at) / Fold change /veh CNN1 (11734310_a_at) / RFU VPS37D (11726825_at) / Fold change /veh VPS37D (11726825_at) / RFU C10orf10 (11716522_x_at) / Fold change /veh C10orf10 (11716522_x_at) / RFU KIR2DL2 /// KIR2DL4 /// KIR2DL5A /// KIR2DL5B /// KIR2DS1 /// KIR2DS2 /// KIR2DS3 /// KIR2DS4 /// KIR3DL3 /// KIR3DL3 /// KIR3DS1 (11738374_at) / Fold change /veh KIR2DL2 /// KIR2DL4 /// KIR2DL5A /// KIR2DL5B /// KIR2DS1 /// KIR2DS2 /// KIR2DS3 /// KIR2DS4 /// KIR3DL3 /// KIR3DL3 /// KIR3DS1 (11738374_at) / RFU C1QL1 (11718748_at) / Fold change /veh C1QL1 (11718748_at) / RFU TMPRSS4 (11747572_a_at) / Fold change /veh TMPRSS4 (11747572_a_at) / RFU HAMP (11756126_x_at) / Fold change /veh HAMP (11756126_x_at) / RFU RNFT2 (11725882_a_at) / Fold change /veh RNFT2 (11725882_a_at) / RFU NR4A2 (11747474_a_at) / Fold change /veh NR4A2 (11747474_a_at) / RFU ABCC12 (11746883_a_at) / Fold change /veh ABCC12 (11746883_a_at) / RFU TMEM136 (11760407_x_at) / Fold change /veh TMEM136 (11760407_x_at) / RFU CLDN22 /// WWC2 (11732394_at) / Fold change /veh CLDN22 /// WWC2 (11732394_at) / RFU HLA-DPB1 (11760878_x_at) / Fold change /veh HLA-DPB1 (11760878_x_at) / RFU SPINT1 (11716480_a_at) / Fold change /veh SPINT1 (11716480_a_at) / RFU GAP43 (11754022_s_at) / Fold change /veh GAP43 (11754022_s_at) / RFU A4GNT (11735810_at) / Fold change /veh A4GNT (11735810_at) / RFU PRB3 (11715151_x_at) / Fold change /veh PRB3 (11715151_x_at) / RFU TUBB4B (11761932_at) / Fold change /veh TUBB4B (11761932_at) / RFU CAPN14 (11732068_a_at) / Fold change /veh CAPN14 (11732068_a_at) / RFU TMCC2 (11721928_a_at) / Fold change /veh TMCC2 (11721928_a_at) / RFU IRGQ (11745062_a_at) / Fold change /veh IRGQ (11745062_a_at) / RFU FAM174B (11720279_a_at) / Fold change /veh FAM174B (11720279_a_at) / RFU TMPRSS4 (11748680_a_at) / Fold change /veh TMPRSS4 (11748680_a_at) / RFU FAM212B (11763350_a_at) / Fold change /veh FAM212B (11763350_a_at) / RFU PLEKHG5 (11743358_a_at) / Fold change /veh PLEKHG5 (11743358_a_at) / RFU ZSCAN30 (11745921_a_at) / Fold change /veh ZSCAN30 (11745921_a_at) / RFU CMKLR1 (11741424_a_at) / Fold change /veh CMKLR1 (11741424_a_at) / RFU LOC101060620 /// MAPK8IP1 (11723275_at) / Fold change /veh LOC101060620 /// MAPK8IP1 (11723275_at) / RFU SPTSSB (11747773_x_at) / Fold change /veh SPTSSB (11747773_x_at) / RFU PRSS12 (11739890_at) / Fold change /veh PRSS12 (11739890_at) / RFU BIN1 (11741810_x_at) / Fold change /veh BIN1 (11741810_x_at) / RFU WNT11 (11732464_a_at) / Fold change /veh WNT11 (11732464_a_at) / RFU C10orf10 (11716521_a_at) / Fold change /veh C10orf10 (11716521_a_at) / RFU C5orf56 (11738089_at) / Fold change /veh C5orf56 (11738089_at) / RFU CYB561 (11721691_x_at) / Fold change /veh CYB561 (11721691_x_at) / RFU ANKRD19P (11752326_a_at) / Fold change /veh ANKRD19P (11752326_a_at) / RFU OR2T12 /// OR2T33 /// OR2T8 (11738714_s_at) / Fold change /veh OR2T12 /// OR2T33 /// OR2T8 (11738714_s_at) / RFU VCAN (11748164_a_at) / Fold change /veh VCAN (11748164_a_at) / RFU JSRP1 (11732532_at) / Fold change /veh JSRP1 (11732532_at) / RFU KRTAP10-11 (11738290_x_at) / Fold change /veh KRTAP10-11 (11738290_x_at) / RFU MYO3A (11730013_a_at) / Fold change /veh MYO3A (11730013_a_at) / RFU EBF3 (11725865_a_at) / Fold change /veh EBF3 (11725865_a_at) / RFU CAMK2N1 (11719241_x_at) / Fold change /veh CAMK2N1 (11719241_x_at) / RFU C5orf56 (11738088_a_at) / Fold change /veh C5orf56 (11738088_a_at) / RFU OLFML3 (11715873_a_at) / Fold change /veh OLFML3 (11715873_a_at) / RFU LOC100653217 /// NTM (11731650_a_at) / Fold change /veh LOC100653217 /// NTM (11731650_a_at) / RFU MAPK11 (11762145_a_at) / Fold change /veh MAPK11 (11762145_a_at) / RFU FIZ1 (11724087_x_at) / Fold change /veh FIZ1 (11724087_x_at) / RFU OASL (11726364_x_at) / Fold change /veh OASL (11726364_x_at) / RFU SOX15 (11748057_x_at) / Fold change /veh SOX15 (11748057_x_at) / RFU CD79A (11719716_a_at) / Fold change /veh CD79A (11719716_a_at) / RFU HIST1H1D (11736915_at) / Fold change /veh HIST1H1D (11736915_at) / RFU CASKIN2 (11723855_a_at) / Fold change /veh CASKIN2 (11723855_a_at) / RFU LOC730098 (11760151_x_at) / Fold change /veh LOC730098 (11760151_x_at) / RFU OR4N2 (11742367_at) / Fold change /veh OR4N2 (11742367_at) / RFU PRRT2 (11749266_a_at) / Fold change /veh PRRT2 (11749266_a_at) / RFU SNX32 (11753110_a_at) / Fold change /veh SNX32 (11753110_a_at) / RFU CDHR5 (11726645_a_at) / Fold change /veh CDHR5 (11726645_a_at) / RFU RCAN1 (11760418_a_at) / Fold change /veh RCAN1 (11760418_a_at) / RFU FAM167A (11723789_a_at) / Fold change /veh FAM167A (11723789_a_at) / RFU FAM26E (11764081_at) / Fold change /veh FAM26E (11764081_at) / RFU ISYNA1 (11749810_s_at) / Fold change /veh ISYNA1 (11749810_s_at) / RFU ACY1 (11761880_at) / Fold change /veh ACY1 (11761880_at) / RFU 11764098_at / Fold change /veh 11764098_at / RFU SAMD14 (11745864_x_at) / Fold change /veh SAMD14 (11745864_x_at) / RFU NPB (11741838_a_at) / Fold change /veh NPB (11741838_a_at) / RFU TMPRSS6 (11731388_a_at) / Fold change /veh TMPRSS6 (11731388_a_at) / RFU KRTAP10-2 (11738614_at) / Fold change /veh KRTAP10-2 (11738614_at) / RFU ARHGAP8 /// PRR5-ARHGAP8 (11727945_x_at) / Fold change /veh ARHGAP8 /// PRR5-ARHGAP8 (11727945_x_at) / RFU KRTAP5-7 /// NADSYN1 (11734609_at) / Fold change /veh KRTAP5-7 /// NADSYN1 (11734609_at) / RFU RASL12 (11751679_a_at) / Fold change /veh RASL12 (11751679_a_at) / RFU CDKN2B (11736163_a_at) / Fold change /veh CDKN2B (11736163_a_at) / RFU PRF1 (11729649_at) / Fold change /veh PRF1 (11729649_at) / RFU, ZNF638 /// ZNF638-IT1 / Fold change vs veh, ZNF638 /// ZNF638-IT1 / RFU, PANK3 / Fold change vs veh, PANK3 / RFU, SH3YL1 / Fold change vs veh, SH3YL1 / RFU, ZEB2 / Fold change vs veh, ZEB2 / RFU, NRIP1 / Fold change vs veh, NRIP1 / RFU, PTTG1IP / Fold change vs veh, PTTG1IP / RFU, CAPN2 / Fold change vs veh, CAPN2 / RFU, MED14 / Fold change vs veh, MED14 / RFU, SNORA58 / Fold change vs veh, SNORA58 / RFU, C1orf63 / Fold change vs veh, C1orf63 / RFU, LRRFIP1 / Fold change vs veh, LRRFIP1 / RFU, NDUFAF7 / Fold change vs veh, NDUFAF7 / RFU, SLC12A2 / Fold change vs veh, SLC12A2 / RFU, IBTK / Fold change vs veh, IBTK / RFU, ESF1 / Fold change vs veh, ESF1 / Fold change vs veh, TMEM50B / RFU, TAOK1 / Fold change vs veh, TAOK1 / RFU, ACBD3 / Fold change vs veh, ACBD3 / RFU, TMA16 / Fold change vs veh, TMA16 / RFU, RWDD3 / Fold change vs veh, RWDD3 / RFU, BCAT1 / Fold change vs veh, BCAT1 / RFU, EDEM3 / Fold change vs veh, EDEM3 / RFU, TMEM33 / Fold change vs veh, TMEM33 / RFU, WDR75 / Fold change vs veh, WDR75 / RFU, AHCTF1 / Fold change vs veh, AHCTF1 / RFU, TFRC / Fold change vs veh, TFRC / RFU, ZDHHC17 / Fold change vs veh, ZDHHC17 / RFU, NOM1 / Fold change vs veh, NOM1 / RFU, ARL8B / Fold change vs veh, ARL8B / RFU, ZBTB11 / Fold change vs veh, ZBTB11 / RFU, TAMM41 / Fold change vs veh, TAMM41 / RFU, KIAA1704 /// LOC100996395 / Fold change vs veh, KIAA1704 /// LOC100996395 / RFU, ING1 / Fold change vs veh, ING1 / RFU, TRMT61B / Fold change vs veh, TRMT61B / RFU, FUBP3 / Fold change vs veh, FUBP3 / RFU, TP53 / Fold change vs veh, TP53 / RFU, TNKS2 / Fold change vs veh, TNKS2 / RFU, ZFP14 / Fold change vs veh, ZFP14 / RFU, ACTR2 / Fold change vs veh, ACTR2 / RFU, PPP3R1 / Fold change vs veh, PPP3R1 / RFU, PIK3R1 / Fold change vs veh, PIK3R1 / RFU, HNRNPA1 / Fold change vs veh, HNRNPA1 / RFU, RNF170 / Fold change vs veh, RNF170 / RFU, ZNF28 / Fold change vs veh, ZNF28 / RFU, RNGTT / Fold change vs veh, RNGTT / RFU, OGT / Fold change vs veh, OGT / RFU, BRD1 / Fold change vs veh, BRD1 / RFU, MARS / Fold change vs veh, MARS / RFU, ZNF655 / Fold change vs veh, ZNF655 / RFU, FAHD1 / Fold change vs veh, FAHD1 / RFU, BDP1 / Fold change vs veh, BDP1 / RFU, LRRCC1 / Fold change vs veh, LRRCC1 / RFU, ARID1A / Fold change vs veh, ARID1A / RFU, ZNF146 / Fold change vs veh, ZNF146 / RFU, ZNF330 / Fold change vs veh, ZNF330 / RFU, GPN3 / Fold change vs veh, GPN3 / RFU, C9orf123 / Fold change vs veh, C9orf123 / RFU, N4BP2L2 / Fold change vs veh, N4BP2L2 / RFU, ARFIP1 / Fold change vs veh, ARFIP1 / RFU, FAM179B / Fold change vs veh, FAM179B / RFU, BCL10 / Fold change vs veh, BCL10 / RFU, UHRF1BP1L / Fold change vs veh, UHRF1BP1L / RFU, BET1 / Fold change vs veh, BET1 / RFU, CNOT2 / Fold change vs veh, CNOT2 / RFU, ZNF268 / Fold change vs veh, ZNF268 / Fold change vs veh, ZNF507 / RFU, DGCR2 / Fold change vs veh, DGCR2 / RFU, WDSUB1 / Fold change vs veh, WDSUB1 / Fold change vs veh, HSP90B1 /// MIR3652 / RFU, ADSS / Fold change vs veh, ADSS / RFU, GK / Fold change vs veh, GK / RFU, ZNF148 / Fold change vs veh, ZNF148 / RFU, TAF9 / Fold change vs veh, TAF9 / RFU, SLC1A5 / Fold change vs veh, SLC1A5 / RFU, SLMO2 / Fold change vs veh, SLMO2 / RFU, ABCC4 / Fold change vs veh, ABCC4 / RFU, LOC101060439 /// RAP1B / Fold change vs veh, LOC101060439 /// RAP1B / RFU, RFX7 / Fold change vs veh, RFX7 / RFU, GTPBP10 / Fold change vs veh, GTPBP10 / RFU, CNEP1R1 / Fold change vs veh, CNEP1R1 / RFU, BIVM-ERCC5 /// ERCC5 / Fold change vs veh, BIVM-ERCC5 /// ERCC5 / RFU, ILF3 / Fold change vs veh, ILF3 / RFU 11762660_at / Fold change /veh 11762660_at / RFU VCAN (11757783_s_at) / Fold change /veh VCAN (11757783_s_at) / RFU DDX43 (11728927_at) / Fold change /veh DDX43 (11728927_at) / RFU KRT8 (11758188_x_at) / Fold change /veh KRT8 (11758188_x_at) / RFU NKD1 (11759106_at) / Fold change /veh NKD1 (11759106_at) / RFU SRD5A1 (11742802_a_at) / Fold change /veh SRD5A1 (11742802_a_at) / RFU TPSAB1 /// TPSB2 (11721975_s_at) / Fold change /veh TPSAB1 /// TPSB2 (11721975_s_at) / RFU GSTM3 (11746129_a_at) / Fold change /veh GSTM3 (11746129_a_at) / RFU IL23R (11737362_x_at) / Fold change /veh IL23R (11737362_x_at) / RFU TMEM51 (11727254_a_at) / Fold change /veh TMEM51 (11727254_a_at) / RFU PIWIL2 (11732686_x_at) / Fold change /veh PIWIL2 (11732686_x_at) / RFU ORM1 (11744905_x_at) / Fold change /veh ORM1 (11744905_x_at) / RFU CCDC152 (11743942_at) / Fold change /veh CCDC152 (11743942_at) / RFU ECM1 (11717891_a_at) / Fold change /veh ECM1 (11717891_a_at) / RFU IL23R (11748794_a_at) / Fold change /veh IL23R (11748794_a_at) / RFU TNFAIP8L3 (11732012_x_at) / Fold change /veh TNFAIP8L3 (11732012_x_at) / RFU MBOAT4 (11741988_at) / Fold change /veh MBOAT4 (11741988_at) / RFU 11764193_at / Fold change /veh 11764193_at / RFU TMEM53 (11763286_at) / Fold change /veh TMEM53 (11763286_at) / RFU MAGEB2 (11727129_at) / Fold change /veh MAGEB2 (11727129_at) / RFU TMEM200A (11744735_a_at) / Fold change /veh TMEM200A (11744735_a_at) / RFU CCDC152 (11751479_a_at) / Fold change /veh CCDC152 (11751479_a_at) / RFU FAM211A (11726209_a_at) / Fold change /veh FAM211A (11726209_a_at) / RFU RGS16 (11746705_a_at) / Fold change /veh RGS16 (11746705_a_at) / RFU VCAN (11755009_s_at) / Fold change /veh VCAN (11755009_s_at) / RFU RHOB (11743442_s_at) / Fold change /veh RHOB (11743442_s_at) / RFU RGS16 (11720943_a_at) / Fold change /veh RGS16 (11720943_a_at) / RFU RGS16 (11720944_at) / Fold change /veh RGS16 (11720944_at) / RFU, VPS4B / Fold change vs veh, VPS4B / RFU, CREB1 / Fold change vs veh, CREB1 / RFU, DNAJC13 / Fold change vs veh, DNAJC13 / RFU, GNAQ / Fold change vs veh, GNAQ / RFU, CDK5R1 / Fold change vs veh, CDK5R1 / RFU, ZRANB3 / Fold change vs veh, ZRANB3 / RFU, CUL4A / Fold change vs veh, CUL4A / RFU, CCNY / Fold change vs veh, CCNY / RFU, UFL1 / Fold change vs veh, UFL1 / RFU, COG3 / Fold change vs veh, COG3 / RFU, DIAPH2 / Fold change vs veh, DIAPH2 / RFU, SKA2 / Fold change vs veh, SKA2 / RFU, AFF3 / Fold change vs veh, AFF3 / RFU, LMF1 / Fold change vs veh, LMF1 / RFU, IPO11 / Fold change vs veh, IPO11 / RFU, DFFB / Fold change vs veh, DFFB / RFU, FOXP1 / Fold change vs veh, FOXP1 / RFU, CARD8 / Fold change vs veh, CARD8 / RFU, STRN3 / Fold change vs veh, STRN3 / RFU, ADK / Fold change vs veh, ADK / RFU, RASSF2 / Fold change vs veh, RASSF2 / RFU, WIPF1 / Fold change vs veh, WIPF1 / RFU, LARP1B / Fold change vs veh, LARP1B / RFU, RASA1 / Fold change vs veh, RASA1 / RFU, RB1 / Fold change vs veh, RB1 / RFU, PPFIA1 / Fold change vs veh, PPFIA1 / RFU, MAT2A / Fold change vs veh, MAT2A / RFU, CCT5 / Fold change vs veh, CCT5 / RFU, WDR92 / Fold change vs veh, WDR92 / RFU, CUX1 / Fold change vs veh, CUX1 / RFU, TTC7A / Fold change vs veh, TTC7A / RFU, TMEM135 / Fold change vs veh, TMEM135 / RFU, DEPTOR / Fold change vs veh, DEPTOR / RFU, CPM / Fold change vs veh, CPM / RFU, DNAJB6 / Fold change vs veh, DNAJB6 / RFU, CACNA2D3 / Fold change vs veh, CACNA2D3 / RFU, DTX4 / Fold change vs veh, DTX4 / RFU, TFCP2 / Fold change vs veh, TFCP2 / RFU, GMCL1 /// GMCL1P1 / Fold change vs veh, GMCL1 /// GMCL1P1 / RFU, AEBP2 / Fold change vs veh, AEBP2 / RFU, SNHG1 /// SNORD22 /// SNORD25 /// SNORD26 /// SNORD27 /// SNORD28 /// SNORD29 /// SNORD31 / Fold change vs veh, SNHG1 /// SNORD22 /// SNORD25 /// SNORD26 /// SNORD27 /// SNORD28 /// SNORD29 /// SNORD31 / Fold change (Aza/veh), C12orf56 (ProbeSet 11735607_a_at) / Fold change (ACY-1035/veh), C12orf56 (ProbeSet 11735607_a_at) / Fold change (Aza/veh), FGFR1OP (ProbeSet 11751329_s_at) / Fold change (ACY-1035/veh), FGFR1OP (ProbeSet 11751329_s_at) / Fold change (Aza/veh), VPS36 (ProbeSet 11739960_a_at) / Fold change (ACY-1035/veh), VPS36 (ProbeSet 11739960_a_at) / RFU SYPL1 (11715823_x_at) / Fold change /veh SYPL1 (11715823_x_at) / RFU IGFBP7 (11715501_s_at) / Fold change /veh IGFBP7 (11715501_s_at) / RFU REEP3 (11722064_at) / Fold change /veh REEP3 (11722064_at) / RFU IGLL1 (11728026_x_at) / Fold change /veh IGLL1 (11728026_x_at): dose or concentration left out as unconfirmed
Details: ProbeSet 11717702_a_at; LIST D

Structure (SMILES): Nc1ccc(-c2cccs2)cc1NC(=O)c1ccc2c(c1)cc(C1CC1)n2CCN1CCOCC1 [ACY-1035]
- RFU, RB1: 245.16 RFU
